# Measured values published in ChEMBL document CHEMBL5154678, “Lysine Stapling Screening Provides Stable and Low Toxic Cationic Antimicrobial Peptides Combating Multidrug-Resistant Bacteria In Vitro and In Vivo” (J Med Chem, 2022).
# The source made the active and inactive calls. The rule behind the calls is not given here. Starred links: 1 amine or outer side, 2 acyl side, 3 side chain; linkers in the order of their positions; H or OH if unused. Positions of bridges follow the written chain, without caps; N, C: chain ends. Non-standard residues stand in square brackets, D forms with d. Residues, ends and D or L forms follow the SMILES beside them. X1 = O=C([C@H](CCCCNCC=[*:3])N[*:1])[*:2]
# Columns and labels:
# [1] = Toxicity in C57BL/6 mouse assessed as effect on blood urea nitrogen level at 5 to 20 mg/kg, ip administered once daily for 5 days and measured after 6 days; format: organism-based; details: in vivo, 120 h, dose 5-20 mg/kg, time 5 day
# [2] = Toxicity in C57BL/6 mouse assessed as effect on alanine aminotransferase level at 5 to 20 mg/kg, ip administered once daily for 5 days and measured after 6 days; format: organism-based; details: in vivo, 120 h, dose 5-20 mg/kg, time 5 day
# [3] = Toxicity in C57BL/6 mouse assessed as effect on body weight at 5 to 20 mg/kg, ip administered once daily for 5 days and measured every 24 hrs; format: organism-based; details: in vivo, 120 h, dose 5-20 mg/kg, time 5 day
# Staphylococcus aureus [4] = experiment: Antibacterial activity against methicillin-resistant Staphylococcus aureus BNCC 186335 infected in mouse C57BL/6 assessed as reduction in intracellular bacterial burden in spleen at 2 mg/kg ,ip incubated for 24 hrs; format: functional, organism-based
# Cell membrane [5] = experiment: Induction of membrane disruption in multidrug-resistant Acinetobacter baumannii assessed as loss of cell integrity at 16 ug/ml measured after 2 hrs by SEM analysis; format: subcellular; details: dose 16.0 µg/ml
# Cell membrane [6] = experiment: Induction of membrane disruption in methicillin-resistant Staphylococcus aureus BNCC 186335 assessed as loss of cell integrity at 16 ug/ml measured after 2 hrs by SEM analysis; format: subcellular; details: dose 16.0 µg/ml
# Cell membrane [7] = experiment: Induction of membrane damage in multidrug-resistant Acinetobacter baumannii assessed as concentration of stained cells incubated for 2 hrs by propidium iodide staining based flow cytometer assay; format: subcellular; details: dose 16.0 µg/ml
# Cell membrane [8] = experiment: Induction of membrane damage in methicillin-resistant Staphylococcus aureus BNCC 186335 assessed as concentration of stained cells incubated for 2 hrs by propidium iodide staining based flow cytometer assay; format: subcellular; details: DDE = dose-dependent effect
# Staphylococcus aureus [9] = experiment: Antibacterial activity against methicillin-resistant Staphylococcus aureus assessed as inhibition of bacterial growth incubated for 16 hrs by broth microdilution method; format: functional
# Staphylococcus aureus [10] = experiment: Antibacterial activity against Staphylococcus aureus BNCC 186335 assessed as inhibition of bacterial growth incubated for 16 hrs by broth microdilution method; format: functional
# Listeria monocytogenes = experiment: Antibacterial activity against Listeria monocytogenes assessed as inhibition of bacterial growth incubated for 16 hrs by broth microdilution method; format: functional
# Staphylococcus aureus [11] = experiment: Antibacterial activity against methicillin-resistant Staphylococcus aureus BNCC 186335 infected in mouse C57BL/6 assessed as reduction in intracellular bacterial burden in liver at 2 mg/kg ,ip incubated for 24 hrs; format: functional, organism-based
# Pseudomonas aeruginosa [12] = experiment: Antibacterial activity against Pseudomonas aeruginosa BNCC 125486 assessed as inhibition of bacterial growth incubated for 16 hrs by broth microdilution method; format: functional
# Escherichia coli [13] = experiment: Antibacterial activity against Escherichia coli BNCC 133264 assessed as inhibition of bacterial growth incubated for 16 hrs by broth microdilution method; format: functional
# Escherichia coli [14] = experiment: Antibacterial activity against cephalosporin-resistant Escherichia coli BNCC 133264 assessed as inhibition of bacterial growth incubated for 16 hrs by broth microdilution method; format: functional
# Erythrocyte = experiment: Hemolytic activity against human RBC assessed as concentration required to cause 10% hemolysis; format: toxicity, cell-based
# HEK-293T [15] = experiment: Cytotoxicity against human HEK293T cells assessed as cell survival rate at 64 Ug/ml incubated for 24 hrs by MTT assay relative to control; format: toxicity, cell-based; details: dose 64 µg/ml
# Staphylococcus aureus [16] = experiment: Antibacterial activity against methicillin-resistant Staphylococcus aureus BNCC 186335 assessed as inhibition of bacterial growth incubated for 4 hrs in presence of 25% plasma by broth microdilution method; format: functional
# [17] = Stability in human plasma assessed as half life measured after 24 hrs by HPLC analysis; format: ADME, cell-free
# Enterococcus faecium = experiment: Antibacterial activity against multidrug-resistant Enterococcus faecium assessed as inhibition of bacterial growth incubated for 16 hrs by broth microdilution method; format: functional
# Staphylococcus aureus [18] = experiment: Antibacterial activity against multidrug-resistant Staphylococcus aureus BNCC 186335 assessed as inhibition of bacterial growth incubated for 16 hrs by broth microdilution method; format: functional
# Klebsiella pneumoniae = experiment: Antibacterial activity against multidrug-resistant Klebsiella pneumoniae assessed as inhibition of bacterial growth incubated for 16 hrs by broth microdilution method; format: functional
# Acinetobacter baumannii [19] = experiment: Antibacterial activity against multidrug-resistant Acinetobacter baumannii assessed as inhibition of bacterial growth incubated for 16 hrs by broth microdilution method; format: functional
# Pseudomonas aeruginosa [20] = experiment: Antibacterial activity against multidrug-resistant Pseudomonas aeruginosa BNCC 125486 assessed as inhibition of bacterial growth incubated for 16 hrs by broth microdilution method; format: functional
# Escherichia coli [21] = experiment: Antibacterial activity against multidrug-resistant Escherichia coli BNCC 133264 assessed as inhibition of bacterial growth incubated for 16 hrs by broth microdilution method; format: functional
# Acinetobacter baumannii [22] = experiment: Bactericidal activity against multidrug-resistant Acinetobacter baumannii assessed as log reduction in colony forming unit at 32 ug/ml measured after 10 mins by time kill assay; format: functional, organism-based; details: dose 32.0 µg/ml
# Cell membrane [23] = experiment: Induction of membrane damage in methicillin-resistant Staphylococcus aureus BNCC 186335 assessed as disruption of membrane integrity at 16 ug/ml incubated for 2 hrs by propidium iodide staining based assay; details: dose 16.0 µg/ml
# [24] = Toxicity in C57BL/6 mouse assessed as effect on aspartate transaminase level at 5 to 20 mg/kg, ip administered once daily for 5 days and measured after 6 days; format: organism-based; details: in vivo, 120 h, dose 5-20 mg/kg, time 5 day
# [25] = Toxicity in C57BL/6 mouse assessed as abnormalities and pathological changes in liver at 20 mg/kg, ip administered once daily for 5 days by H and E staining based assay; format: organism-based; details: in vivo, 120 h, time 5 day
# [26] = Toxicity in C57BL/6 mouse assessed as abnormalities and pathological changes in kidney at 20 mg/kg, ip administered once daily for 5 days by H and E staining based assay; format: organism-based; details: in vivo, 120 h, time 5 day
# HEK-293T [27] = experiment: Cytotoxicity against human HEK293T cells assessed as cell survival rate at 256 ug/ml incubated for 24 hrs by MTT assay; format: toxicity, cell-based; details: dose 256 µg/ml
# Staphylococcus aureus [28] = experiment: Drug resistance development in Staphylococcus aureus assessed as change in MIC at sub-MIC concentration measured after 60 passages; format: functional, organism-based
smiles,measurement,setting,value
CC(C)[C@H](N)C(=O)N[C@@H](CCCCN)C(=O)N[C@@H](CCCNC(=N)N)C(=O)N[C@@H](Cc1ccccc1)C(=O)N[C@@H](CCCCN)C(=O)N[C@H]1CCCCNC/C=C/CNCCCC[C@@H](C(=O)N[C@@H](Cc2ccccc2)C(=O)N[C@@H](CCCCN)C(=O)N[C@@H](CCCCN)C(=O)N[C@@H](Cc2ccccc2)C(=O)N[C@H](C(N)=O)C(C)C)NC(=O)[C@H](CCCNC(=N)N)NC(=O)[C@H](Cc2ccccc2)NC(=O)[C@H](Cc2ccccc2)NC1=O (H-VKRFK[X1]FFR[X1]FKKFV-NH2; staple (E) 6-10),Activity,[1],Non-Toxic
same,Activity,[2],Non-Toxic
same,Activity,[3],Non-Toxic
same,Activity,Staphylococcus aureus [4],Active
same,Activity,Cell membrane [5],Active
same,Activity,Cell membrane [6],Active
same,Activity,Cell membrane [7],80%
same,Activity,Cell membrane [8],Dde
same,MIC,Staphylococcus aureus [9],2 µg/mL
same,MIC,Staphylococcus aureus [10],2 µg/mL
same,MIC,Listeria monocytogenes,4 µg/mL
same,Activity,Staphylococcus aureus [11],Active
same,MIC,Pseudomonas aeruginosa [12],16 µg/mL
same,MIC,Escherichia coli [13],2 µg/mL
same,MIC,Escherichia coli [14],8 µg/mL
same,MHC,Erythrocyte,> 128 µg/mL
same,Activity,HEK-293T [15],Toxic
same,Activity,Staphylococcus aureus [16],Active
same,half-life,[17],780 min
same,MIC,Enterococcus faecium,4 µg/mL
same,MIC,Staphylococcus aureus [18],8 µg/mL
same,MIC,Klebsiella pneumoniae,32 µg/mL
same,MIC,Acinetobacter baumannii [19],4 µg/mL
same,MIC,Pseudomonas aeruginosa [20],8 µg/mL
same,MIC,Escherichia coli [21],4 µg/mL
same,Activity,Acinetobacter baumannii [22],Active
same,Activity,Cell membrane [23],Active
same,Activity,[24],Non-Toxic
same,Activity,[25],Non-Toxic
same,Activity,[26],Non-Toxic
same,Activity,HEK-293T [27],Toxic
same,Activity,Staphylococcus aureus [28],Active
